# Where “and” joins values, the source holds several entries; their conditions need not be identical. Equal values may be shown once.
# What was measured:
# [1] = cited from earlier work
# [2] = after cis-platin, ref Vermorken et al., cited from earlier work
# [3] = set-up: method as in Schurig et al., 1984; conditions: ferret, preclinical; ref Schurig et al., 1984; cited from earlier work
# plasma proteins = test system: plasma proteins; set-up: method as in Van der Vijgh et al., 1986; conditions: ref Van der Vijgh et al., 1986; cited from earlier work
# [4] = set-up: method as in Lelieveld et al., 1984; conditions: dogs, preclinical; ref Lelieveld et al., 1984; cited from earlier work
# [5] = human, in vivo
# Source text: Br. J. Cancer (1987), 56, 479-483 ? The Macmillan Press Ltd., 1987 Pharmacokinetics of ethylenediaminemalonatoplatinum(II) (JM-40) during phase I trial F. Elferink1, W.J.F. van der Vijgh1, W.W. ten Bokkel Huinink2, J.B. Vermorken', I. Klein1, B. Winograd', M.K.T. Knobf', G. Simonetti2, H.E. Gall', J.G. McVie2 & H.M. Pinedo' 1Department of Oncology, Free University Hospital, De Boelelaan 1117, 1081 HV Amsterdam; and 2Netherlands Cancer Institute, Antoni van Leeuwenhoek Hospital, Plesmanlaan 121, 1066 CX Amsterdam, The Netherlands. […] The drug was administered intravenously by short-term (10-60min) infusion. Doses ranged from 20 to 1,200 mgm-2. JM-40 was determined in plasma ultrafiltrate and urine by HPLC. Platinum (Pt) concentrations were determined in plasma, plasma ultrafiltrate, urine and red blood cells by atomic absorption spectrometry up to 5 days after administration of the drug. Ultrafilterable Pt could be determined up to 45 days after the infusion in one patient sampled over such a long period. […] During the first 6h 27+9% of the administered dose was excreted as JM-40. Cumulative platinum excretion in the urine amounted to 29+ 13%, 42+ 14% and 60+13% over the first 6h, 24h and 5 days, respectively. The uptake of platinum in red blood cells was limited, comprising only 0.24+0.12% of the administered dose. […] In particular the low emetogenic potential as determined in the ferret (Schurig et al., 1984) and the limited nephrotoxicity observed in dogs (Lelieveld et al., 1984) were reasons to conduct a phase I trial. […] Investigation of the pharmacokinetics during phase I clinical trials is important because it may help to design an optimal therapeutic regimen in phase II trials (Kovach, 1983). In the case of an analogue, pharmacokinetics can be compared with that of the parent compound. Furthermore, when preclinical information on animal pharmacokinetics is available human pharmacokinetics at low doses of the phase I trial may aid in escalating the dose as quickly and safely as possible (Collins et al., 1986, Van Hennik et al. 1987). Thus, clinical pharmacokinetics of JM-40 and platinum were investigated in plasma, plasma ultrafiltrate, urine and red blood cells. Figure 1 Structural platinum(II) (JM-40). formula of ethylenediaminemalonato- Patients and methods Patients and materials Pharmacokinetic studies were performed in 19 patients who received 28 cycles of JM-40 within a dose range of 20- 1,200mgm-2. The median age of the patients (6 females, 13 males) was 57 yrs (range 37-74 yrs). […] Renal function was decreased (creatinine clearance <60mlmin-1) at the start of only 3 treatment cycles. […] JM-40 was supplied by Johnson Matthey, Reading, Berkshire, UK. […]
compound,measurement,setting,value
"N.N.O=C([O-])C1(C(=O)[O-])CCC1.[Pt+2] [carboplatin, diammine( 1, l-cyclobutanedicarboxylato)platinum(II), reference compound]",dose limiting toxicity,"[1]; ref Joss et al., 1984",myelotoxicity
"N.N.[Cl][Pt][Cl] [cis-platin, cis-diammine-dichloroplatinum(II)]",CUE 0-6h of free Pt,[2]; 1984b,24+5 %D
same,CUE 0-24h of free Pt,[2]; 1986,28+4 %D
ethylenediaminemalonatoplatinum(II) [JM-40],emetogenic potential,[3],low
same,in vitro rate constant of plasma protein binding (k in vitro of free Pt),plasma proteins,0.002 min⁻¹ and 0.0020 min⁻¹
same,nephrotoxicity,[4],limited
same,"cumulative urinary excretion after 24 h, as Pt",[5],42+14%
same,dose m-2 vs AUC relation,[5],linear pharmacokinetics
same,half-life of Pt in RBCs over day 1-5,[5],14 + 3 days
same,time of maximum Pt levels in RBCs after start of infusion,[5],2 to 8 h
same,maximum tolerable dose,[1]; in vivo,"1,200 mg m-2"

# — PMC2001825, “Pharmacokinetics of ethylenediaminemalonatoplatinum(II) (JM-40) during phase I trial” (British Journal of Cancer, 1987)
